Data published in ChEMBL document CHEMBL1157174, “Electronically stabilized versions of the antimalarial acetal trioxanes artemether and artesunate” (Bioorg Med Chem, 2008).
Calls of active or inactive are those of the source. The rule behind the calls is not given here.

Tested on: Plasmodium berghei
Test: Antimalarial activity against Plasmodium berghei infected mice (Mus musculus) at 30 mg/kg peroral dose
Type: functional, organism-based
Parameters: dose 30 mg/kg

| Compound | Activity |
| --- | --- |
| C[C@@H]1CC[C@@H]2[C@]34OO[C@@](C)(CC[C@@H]13)O[C@H]4OC(=O)[C@@]2(C)S(C)(=O)=O | inactive |
| C[C@@H]1CC[C@@H]2[C@]34OO[C@@](C)(CC[C@@H]13)O[C@H]4OC(O)[C@]2(C)F (stereo partly specified) | inactive |
| C[C@@H]1CC[C@@H]2[C@]34OO[C@@](C)(CC[C@@H]13)O[C@H]4OC(=O)[C@]2(C)S(C)(=O)=O | inactive |
| C[C@@H]1CC[C@@H]2[C@]34OO[C@@](C)(CC[C@@H]13)O[C@H]4O[C@@H](O)[C@]2(C)S(=O)(=O)c1ccccc1 | inactive |
| C[C@@H]1CC[C@@H]2[C@]34OO[C@@](C)(CC[C@@H]13)O[C@H]4O[C@@H](O)[C@]2(C)S(C)(=O)=O | inactive |
| C[C@@H]1CC[C@@H]2[C@]34OO[C@@](C)(CC[C@@H]13)O[C@H]4O[C@H](O)[C@@]2(C)S(C)(=O)=O | inactive |
| CO[C@H]1O[C@@H]2O[C@]3(C)CC[C@H]4[C@H](C)CC[C@@H]([C@@]1(C)F)[C@@]24OO3 | inactive |
| CCCCCCCCCCc1ccc(C(=O)O[C@@H]2O[C@@H]3O[C@]4(C)CC[C@H]5[C@H](C)CC[C@H]([C@@]35OO4)[C@@]2(C)S(C)(=O)=O)cc1 | inactive |
| CCCCCc1ccc(C(=O)O[C@@H]2O[C@@H]3O[C@]4(C)CC[C@H]5[C@H](C)CC[C@H]([C@@]35OO4)[C@@]2(C)S(=O)(=O)c2ccccc2)cc1 | inactive |
| CCCCCCCCCCCCCCCCCC(=O)O[C@@H]1O[C@@H]2O[C@]3(C)CC[C@H]4[C@H](C)CC[C@H]([C@@]24OO3)[C@@]1(C)S(C)(=O)=O | inactive |
| CO[C@@H]1O[C@@H]2O[C@]3(C)CC[C@H]4[C@H](C)CC[C@@H]([C@@]1(C)F)[C@@]24OO3 | inactive |
